Source: patent publication US4160829A, “Antibacterial 1,2,4-oxadiazolylacetamido cephalosporins” (Gist-Brocades N.V., priority 1972, dated 1979)
≈ marks a conversion by molar mass, not a printed value. Like-named read-outs stand apart in the source and are kept apart here.

What was measured:
[1] = system: Salm.typh. R 127; test: micro serial dilution test; type: cell-based; details: micro serial dilution (in brackets), about 18 hours, 30° C. or 37° C.; read-out: minimal inhibitory concentration (MIC)
From the text: (§1) Two drops of a stock solution of the test compound (antibiotic) in a known concentration were brought into the first hole of a test plate with 9 numbered holes with a sterile Pasteur pipette. After rinsing this pipette three times with a physiological NaCl-solution, two drops of a stock solution of the test organism in a culture medium were brought in all the holes except for hole 8. In the first hole, the solution of the tested compound had been half diluted, then by stirring the liquid in the first hole and adding two drops of this mixture to the second hole and so on until hole 8, dilutions of the test compound solution were obtained in geometrical progression. The hole 9 contained no antibiotic and served for checking the growth of the testogranism in a blank medium. The test plate was incubated at 30° C. or 37° C. for about 18 hours.

[2] = system: Salm.dubl. P 43; test: agar serial dilution test; type: cell-based, Salmonella dublin; details: Salmonella enterica, 24 h, read-out: minimal inhibitory concentration (MIC)
[3] = system: Bac.Subt.ATCC 6633; test: agar serial dilution test; type: cell-based, Bacillus subtilis; details: Bacillus subtilis, ATCC6633, 24 h, read-out: minimal inhibitory concentration (MIC)
[4] = system: Bruc.melit. A 488; test: microbe, parasite or virus in culture; type: cell-based; details: Brucella melitensis, 24 h, read-out: minimal inhibitory concentration (MIC)
[5] = system: Shig.equir. T 3; test: agar serial dilution test; type: cell-based; details: 24 h, 37° C., read-out: minimal inhibitory concentration (MIC)
[6] = system: Esch.coli U 20; test: agar serial dilution test; type: cell-based, Escherichia coli; details: Escherichia coli, U20, 24 h, read-out: minimal inhibitory concentration (MIC), agar serial dilution, 24 hours, 37° C.
[7] = system: Staph.aureus A 355; test: agar serial dilution test; details: Staphylococcus aureus, A355, 24 h, read-out: minimal inhibitory concentration (MIC)
[8] = system: Pseud.aerug. 2396; test: agar serial dilution test; type: cell-based; details: 24 h, read-out: minimal inhibitory concentration (MIC)
[9] = system: Staph.aureus A 2000; test: agar serial dilution test; type: cell-based, Staphylococcus aureus; details: Staphylococcus aureus, A2000, 24 h, read-out: minimal inhibitory concentration (MIC)
[10] = system: Staph.aureus A 321; test: agar serial dilution test; type: cell-based, Staphylococcus aureus; details: Staphylococcus aureus, A321, 24 h, read-out: minimal inhibitory concentration (MIC)
[11] = system: Prot.mirab. H 3; test: agar serial dilution test; type: cell-based, Proteus mirabilis; details: Proteus mirabilis, 24 h, read-out: minimal inhibitory concentration (MIC), agar serial dilution, 24 hours, 37° C.
[12] = system: Prot.morg. 2241; test: agar serial dilution test; type: cell-based; details: 24 h, read-out: minimal inhibitory concentration (MIC)
[13] = system: Past.multo. A 723; test: agar serial dilution test; type: cell-based, Pasteurella multocida; details: Pasteurella multocida, 24 h, read-out: minimal inhibitory concentration (MIC)
[14] = system: Strep.haem. A 266; test: agar serial dilution test; type: cell-based, Streptococcus haemolyticus; details: Streptococcus, 24 h, read-out: minimal inhibitory concentration (MIC)
[15] = system: Prot.mirab. L 93; test: agar serial dilution test; type: cell-based, Proteus mirabilis; details: Proteus mirabilis, 24 h, read-out: minimal inhibitory concentration (MIC), agar serial dilution, 24 hours, 37° C.
[16] = system: Kleb.pneum. A 809; test: agar serial dilution test; type: cell-based, Klebsiella pneumoniae; details: Klebsiella pneumoniae, 24 h, read-out: minimal inhibitory concentration (MIC)
[17] = system: Dipl.pneum. L 54; test: agar serial dilution test; type: cell-based, Diplococcus pneumoniae; details: Streptococcus pneumoniae, 24 h, read-out: minimal inhibitory concentration (MIC)
[18] = system: Pseud.aerug. Wyeth A 1058; test: agar serial dilution test; type: cell-based; details: 24 h, read-out: minimal inhibitory concentration (MIC)
[19] = system: Prot.rettg. A 821; test: agar serial dilution test; type: cell-based, Proteus rettgeri; details: Providencia rettgeri, 24 h, read-out: minimal inhibitory concentration (MIC)
[20] = system: Haem.infl. A 1030; test: micro serial dilution test; type: cell-based; details: 18 h, read-out: minimal inhibitory concentration (MIC)
[21] = system: Pseud.aerug. H 10; test: agar serial dilution test; type: cell-based; details: 24 h, read-out: minimal inhibitory concentration (MIC)
[22] = system: Strep. faec. L 80; test: agar serial dilution test; type: cell-based, Streptococcus faecalis; details: Enterococcus faecalis, 24 h, read-out: minimal inhibitory concentration (MIC)
[23] = system: Shig.equir. T 3; test: micro serial dilution test; type: cell-based; details: micro serial dilution (in brackets), about 18 hours, 30° C. or 37° C.; read-out: minimal inhibitory concentration (MIC)
From the text: as §1

[24] = system: Salm.dubl. P 43; test: micro serial dilution test; type: cell-based, Salmonella dublin; details: Salmonella enterica, read-out: minimal inhibitory concentration (MIC)
[25] = system: Pseud.aerug. 2396; test: micro serial dilution test; type: cell-based; details: read-out: minimal inhibitory concentration (MIC)
[26] = system: Prot.mirab. L 93; test: micro serial dilution test; type: cell-based; details: Proteus mirabilis, read-out: minimal inhibitory concentration (MIC)
[27] = system: Esch.coli U 20; test: micro serial dilution test; type: cell-based; details: Escherichia coli, read-out: minimal inhibitory concentration (MIC)
[28] = system: Prot.rettg. A 821; test: micro serial dilution test; type: cell-based, Proteus rettgeri; details: Providencia rettgeri, read-out: minimal inhibitory concentration (MIC)
[29] = system: Dipl.pneum. L 54; test: micro serial dilution test; type: cell-based, Diplococcus pneumoniae; details: Streptococcus pneumoniae, read-out: minimal inhibitory concentration (MIC)
[30] = system: Kleb.pneum. A 809; test: micro serial dilution test; type: cell-based; details: Klebsiella pneumoniae, read-out: minimal inhibitory concentration (MIC)
[31] = system: Strep. faec. L 80; test: micro serial dilution test; type: cell-based, Streptococcus faecalis; details: Enterococcus faecalis, read-out: minimal inhibitory concentration (MIC)
[32] = system: Staph.aureus A 355; test: micro serial dilution test; type: cell-based, Staphylococcus aureus; details: Staphylococcus aureus, read-out: minimal inhibitory concentration (MIC)
[33] = system: Prot.morg. 2241; test: micro serial dilution test; type: cell-based; details: read-out: minimal inhibitory concentration (MIC)
[34] = system: Prot.mirab. H 3; test: micro serial dilution test; type: cell-based; details: Proteus mirabilis, read-out: minimal inhibitory concentration (MIC)
[35] = system: Strep.haem. A 266; test: micro serial dilution test; type: cell-based, Streptococcus haemolyticus; details: Streptococcus, read-out: minimal inhibitory concentration (MIC)
[36] = system: Staph.aureus A 321; test: micro serial dilution test; type: cell-based; details: Staphylococcus aureus, read-out: minimal inhibitory concentration (MIC)
[37] = system: Bruc.melit. A 488; test: microbe, parasite or virus in culture; type: cell-based; details: Brucella melitensis, 18 h, read-out: minimal inhibitory concentration (MIC)
[38] = system: Bac.Subt.ATCC 6633; test: micro serial dilution test; type: cell-based; details: Bacillus subtilis, read-out: minimal inhibitory concentration (MIC)
[39] = system: Pseud.aerug. H 10; test: micro serial dilution test; type: cell-based; details: read-out: minimal inhibitory concentration (MIC)
[40] = system: Pseud.aerug. Wyeth A 1058; test: micro serial dilution test; type: cell-based; details: read-out: minimal inhibitory concentration (MIC)
[41] = system: Past.multo. A 723; test: micro serial dilution test; type: cell-based; details: Pasteurella multocida, read-out: minimal inhibitory concentration (MIC)
[42] = micro serial dilution (in brackets), about 18 hours, 30° C. or 37° C.

CC1=C(C(=O)O)N2C(=O)[C@@H](NC(=O)[C@H](N)c3ccccc3)[C@H]2SC1 [Cefalexin, reference compound]
MIC [1]: 6 µg/mL (≈ 17.3 µM)
MIC [2]: 6 µg/mL (≈ 17.3 µM)
MIC [3]: 0.5 µg/mL (≈ 1.44 µM)
MIC [4]: 6 µg/mL (≈ 17.3 µM)
MIC [5]: 1.5 µg/mL (≈ 4.32 µM)
MIC [6]: 12.5 µg/mL (≈ 36 µM)
MIC [7]: 12.5 µg/mL (≈ 36 µM)
MIC [8]: > 100 µg/mL
MIC [9]: 12.5 µg/mL (≈ 36 µM)
MIC [10]: 1.5 µg/mL (≈ 4.32 µM)
MIC [11]: 25 µg/mL (≈ 72 µM)
MIC [12]: > 100 µg/mL
MIC [13]: 3 µg/mL (≈ 8.64 µM)
MIC [14]: 0.25 µg/mL (≈ 0.72 µM)
MIC [15]: 12.5 µg/mL (≈ 36 µM)
MIC [16]: 3 µg/mL (≈ 8.64 µM)
MIC [17]: 3 µg/mL (≈ 8.64 µM)
MIC [18]: > 100 µg/mL
MIC [19]: 12.5 µg/mL (≈ 36 µM)
MIC [20]: 125 µg/mL (≈ 360 µM)
MIC [21]: > 100 µg/mL
MIC [22]: 100 µg/mL (≈ 288 µM)

CC1(C)S[C@@H]2[C@H](NC(=O)Cc3ccccc3)C(=O)N2[C@H]1C(=O)O [Penicillin G]
MIC [23]: 0.25 µg/mL (≈ 0.748 µM)
MIC [24, 42]: 5 µg/mL (≈ 15 µM)
MIC [25, 42]: > 100 µg/mL
MIC [26, 42]: 0.5 µg/mL (≈ 1.5 µM)
MIC ([27]; U20, micro serial dilution (in brackets), about 18 hours, 30° C. or 37° C.): 40 µg/mL (≈ 120 µM)
MIC [28, 42]: 25 µg/mL (≈ 74.8 µM)
MIC [29, 42]: 0.13 µg/mL (≈ 0.389 µM)
MIC [30, 42]: 100 µg/mL (≈ 299 µM)
MIC [31, 42]: 4 µg/mL (≈ 12 µM)
MIC ([32]; A355, micro serial dilution (in brackets), about 18 hours, 30° C. or 37° C., penicillinase-producing strain): 10 µg/mL (≈ 29.9 µM)
MIC [33, 42]: > 100 µg/mL
MIC [34, 42]: 7.5 µg/mL (≈ 22.4 µM)
MIC [35, 42]: 0.013 µg/mL (≈ 0.0389 µM)
MIC ([36]; A321, micro serial dilution (in brackets), about 18 hours, 30° C. or 37° C.): 0.03 µg/mL (≈ 0.0897 µM)
MIC [37]: 0.25 µg/mL (≈ 0.748 µM)
MIC ([38]; ATCC6633, micro serial dilution (in brackets), about 18 hours, 30° C. or 37° C.): 0.006 µg/mL (≈ 0.0179 µM)
MIC [39, 42]: > 100 µg/mL
MIC [40, 42]: 100 µg/mL (≈ 299 µM)
MIC [41, 42]: 0.2 µg/mL (≈ 0.598 µM)
MIC [20, 42]: 0.5 µg/mL (≈ 1.5 µM)

CC1(C)S[C@@H]2[C@H](NC(=O)COc3ccccc3)C(=O)N2[C@H]1C(=O)O [Penicillin V]
MIC [23]: 5 µg/mL (≈ 14.3 µM)
MIC ([24]; 18 h): > 100 µg/mL
MIC ([25]; 18 h): 100 µg/mL (≈ 285 µM)
MIC ([26]; 18 h): 10 µg/mL (≈ 28.5 µM)
MIC ([27]; U20, 18 h): 100 µg/mL (≈ 285 µM)
MIC ([28]; 18 h): 100 µg/mL (≈ 285 µM)
MIC ([29]; 18 h): 1 µg/mL (≈ 2.85 µM)
MIC ([30]; 18 h): 100 µg/mL (≈ 285 µM)
MIC ([31]; 18 h): 5 µg/mL (≈ 14.3 µM)
MIC ([32]; A355, 18 h): 25 µg/mL (≈ 71.3 µM)
MIC ([33]; 18 h): > 100 µg/mL
MIC ([34]; 18 h): 100 µg/mL (≈ 285 µM)
MIC ([35]; 18 h): 0.2 µg/mL (≈ 0.571 µM)
MIC ([36]; A321, 18 h): 0.045 µg/mL (≈ 0.128 µM)
MIC [37]: 1 µg/mL (≈ 2.85 µM)
MIC ([38]; ATCC6633, 18 h): 0.002 µg/mL (≈ 0.00571 µM)
MIC ([39]; 18 h): > 100 µg/mL
MIC ([40]; 18 h): > 100 µg/mL
MIC ([41]; 18 h): 0.75 µg/mL (≈ 2.14 µM)
MIC [20]: 1 µg/mL (≈ 2.85 µM)
